In US20260007681A1, “INDOLE DERIVATIVES AS ESTROGEN RECEPTOR DEGRADERS” (REGENTS OF THE UNIVERSITY OF MICHIGAN, priority 2022, published 2026) one finds DC50 and IC50 data, which are given here for 14 molecules.

A value given as a limit tells only on which side of the number the result lay.

One experiment concerns the target ER (Homo sapiens (Human), UniProt P03372). Description: In-cell western blot analysis of relative ER percentage (Compounds B1-B278). The class given is cell-based. Conditions: ER degradation, 16 hours, read-out: ICW DC50. In a few lines:
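In-cell western: after 16 h compound exposure (0.5% DMSO final), fixed and permeabilized cells are probed with anti-ER plus anti-GAPDH and near-infrared secondaries. Relative ER percentage compares treated wells against untreated and DMSO wells taken as 100%; seeding 40,000 or 10,000 cells/well.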

Experiment [1] in a line: Cell growth assay (WST-8) (Compounds B1-B278). The class given is cell-based. The conditions noted are these: 96 h; T47D cell line; WST-8, 4 days; read-out: Cell Growth Inhibition in T47D cell line IC50. In short, it runs like this: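 Read-out is WST-8 absorbance at 450 nm (2.5 h, 37° C) as a fraction of vehicle control, from three separate repeats. Compound exposure lasted 4 days, starting one day after plating 1500 cells/well.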

ER, sequence (P03372 whole entry): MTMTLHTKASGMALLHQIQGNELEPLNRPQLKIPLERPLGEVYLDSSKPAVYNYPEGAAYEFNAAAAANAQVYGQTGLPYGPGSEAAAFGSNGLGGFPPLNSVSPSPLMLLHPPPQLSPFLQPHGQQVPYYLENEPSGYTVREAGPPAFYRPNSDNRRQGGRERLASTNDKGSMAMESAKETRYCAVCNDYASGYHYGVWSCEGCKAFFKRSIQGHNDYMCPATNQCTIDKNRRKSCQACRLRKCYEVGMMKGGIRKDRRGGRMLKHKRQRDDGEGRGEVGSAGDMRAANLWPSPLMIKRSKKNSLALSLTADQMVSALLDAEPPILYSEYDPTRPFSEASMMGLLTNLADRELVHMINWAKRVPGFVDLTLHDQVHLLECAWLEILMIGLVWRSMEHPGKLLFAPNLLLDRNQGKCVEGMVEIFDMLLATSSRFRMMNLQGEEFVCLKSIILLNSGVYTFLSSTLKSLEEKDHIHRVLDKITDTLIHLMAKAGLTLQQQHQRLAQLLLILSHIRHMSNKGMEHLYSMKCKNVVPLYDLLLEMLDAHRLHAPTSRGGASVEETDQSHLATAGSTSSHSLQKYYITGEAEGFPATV

Turning to `C[C@@H]1Cc2c([nH]c3ccccc23)[C@@H](c2cnc(N3CCC4(CC3)CC(N3CCN5c6ccc7c(c6OC[C@H]5C3)CN(C3CCC(=O)NC3=O)C7=O)C4)nc2)N1CC(F)F` (stereo partly drawn) [Compound B155, 3-((R)-7-(7-(5-((1R,3R)-2-(2,2-difluoroethyl)-3-methyl-2,3,4,9-tetrahydro-1H-pyrido[3,4-b]indol-1-yl)pyrimidin-2-yl)-7-azaspiro[3.5]nonan-2-yl)-1-oxo-1,3,5,5a,6,7,8,9-octahydro-2H-pyrazino[1′,2′:4,5][1,4]oxazino[2,3-e]isoindol-2-yl)piperidine-2,6-dione], on ER, the DC50 was over 100 nM. In experiment [1], the concentration for half-maximal inhibition (IC50) was in the range of 1 to 10 nM.

With `C[C@@H]1Cc2c([nH]c3ccccc23)[C@@H](c2cnc(N3CC4(CCC(N5CCN6c7ccc8c(c7OC[C@H]6C5)CN(C5CCC(=O)NC5=O)C8=O)CC4)C3)nc2)N1CC(F)F` (stereo partly drawn) [Compound B156, 3-((R)-7-(2-(5-((1R,3R)-2-(2,2-difluoroethyl)-3-methyl-2,3,4,9-tetrahydro-1H-pyrido[3,4-b]indol-1-yl)pyrimidin-2-yl)-2-azaspiro[3.5]nonan-7-yl)-1-oxo-1,3,5,5a,6,7,8,9-octahydro-2H-pyrazino[1′,2′:4,5][1,4]oxazino[2,3-e]isoindol-2-yl)piperidine-2,6-dione], at ER, the DC50 is over 100 nM. The half-inhibitory concentration (IC50) in experiment [1] is over 10 nM.

Regarding `C[C@@H]1Cc2c([nH]c3ccccc23)[C@@H](c2cnc(N3CCC4(CC(CN5CCN6c7ccc8c(c7OC[C@H]6C5)CN(C5CCC(=O)NC5=O)C8=O)C4)C3)nc2)N1CC(F)F` (stereo partly drawn) [Compound B157, 3-((R)-7-((6-(5-((1R,3R)-2-(2,2-difluoroethyl)-3-methyl-2,3,4,9-tetrahydro-1H-pyrido[3,4-b]indol-1-yl)pyrimidin-2-yl)-6-azaspiro[3.4]octan-2-yl)methyl)-1-oxo-1,3,5,5a,6,7,8,9-octahydro-2H-pyrazino[1′,2′:4,5][1,4]oxazino[2,3-e]isoindol-2-yl)piperidine-2,6-dione], on ER, the DC50 is over 100 nM. In experiment [1], the IC50 lay in the range of 1 to 10 nM.

Regarding `C[C@@H]1Cc2c([nH]c3ccccc23)[C@@H](c2cnc(N3CC4(CCC(N5CCN6c7ccc8c(c7OC[C@H]6C5)CN(C5CCC(=O)NC5=O)C8=O)CC4)C3)nc2)N1CC(F)(F)CO` (stereo partly drawn) [Compound B158, 3-((R)-7-(2-(5-((1R,3R)-2-(2,2-difluoro-3-hydroxypropyl)-3-methyl-2,3,4,9-tetrahydro-1H-pyrido[3,4-b]indol-1-yl)pyrimidin-2-yl)-2-azaspiro[3.5]nonan-7-yl)-1-oxo-1,3,5,5a,6,7,8,9-octahydro-2H-pyrazino[1′,2′:4,5][1,4]oxazino[2,3-e]isoindol-2-yl)piperidine-2,6-dione], at ER, the half-maximal degradation concentration (DC50) is over 100 nM. Moreover, the IC50 in experiment [1] is under 1 nM.

For `C[C@@H]1Cc2c([nH]c3ccccc23)[C@@H](c2cnc(N3CCC(CCN4CCN5c6ccc7c(c6OC[C@H]5C4)CN(C4CCC(=O)NC4=O)C7=O)CC3)nc2)N1CC(F)(F)CO` (stereo partly drawn) [Compound B159, 3-((R)-7-(2-(1-(5-((1R,3R)-2-(2,2-difluoro-3-hydroxypropyl)-3-methyl-2,3,4,9-tetrahydro-1H-pyrido[3,4-b]indol-1-yl)pyrimidin-2-yl)piperidin-4-yl)ethyl)-1-oxo-1,3,5,5a,6,7,8,9-octahydro-2H-pyrazino[1′,2′:4,5][1,4]oxazino[2,3-e]isoindol-2-yl)piperidine-2,6-dione], on ER, the DC50 was over 100 nM. Further, the half-inhibitory concentration (IC50) in experiment [1] was over 10 nM.

Regarding `C[C@@H]1Cc2c([nH]c3ccccc23)[C@@H](c2cnc(N3CCC(CCN4CCN5c6ccc7c(c6OC[C@H]5C4)CN(C4CCC(=O)NC4=O)C7=O)CC3)nc2)N1CC(F)F` (stereo partly drawn) [Compound B160, 3-((R)-7-(2-(1-(5-((1R,3R)-2-(2,2-difluoroethyl)-3-methyl-2,3,4,9-tetrahydro-1H-pyrido[3,4-b]indol-1-yl)pyrimidin-2-yl)piperidin-4-yl)ethyl)-1-oxo-1,3,5,5a,6,7,8,9-octahydro-2H-pyrazino[1′,2′:4,5][1,4]oxazino[2,3-e]isoindol-2-yl)piperidine-2,6-dione], the DC50 at ER is over 100 nM. Moreover, in experiment [1], the IC50 was 1 to 10 nM.

`C[C@@H]1Cc2c([nH]c3ccccc23)[C@@H](c2cnc(N3CCC4(CCC(CN5CCN6c7ccc8c(c7OC[C@H]6C5)CN(C5CCC(=O)NC5=O)C8=O)CC4)CC3)nc2)N1CC(F)F` (stereo partly drawn) [Compound B161, 3-((R)-7-((3-(5-((1R,3R)-2-(2,2-difluoroethyl)-3-methyl-2,3,4,9-tetrahydro-1H-pyrido[3,4-b]indol-1-yl)pyrimidin-2-yl)-3-azaspiro[5.5]undecan-9-yl)methyl)-1-oxo-1,3,5,5a,6,7,8,9-octahydro-2H-pyrazino[1′,2′:4,5][1,4]oxazino[2,3-e]isoindol-2-yl)piperidine-2,6-dione]: the 50% degradation concentration (DC50) on ER was over 100 nM. In addition, the IC50 in experiment [1] was over 10 nM.

For `C[C@@H]1Cc2c([nH]c3ccccc23)[C@@H](c2cnc(N3CCC4(CCC(CN5CCN6c7ccc8c(c7OC[C@H]6C5)CN(C5CCC(=O)NC5=O)C8=O)CC4)CC3)nc2)N1CC(C)(C)F` (stereo partly drawn) [Compound B162, 3-((R)-7-((3-(5-((1R,3R)-2-(2-fluoro-2-methylpropyl)-3-methyl-2,3,4,9-tetrahydro-1H-pyrido[3,4-b]indol-1-yl)pyrimidin-2-yl)-3-azaspiro[5.5]undecan-9-yl)methyl)-1-oxo-1,3,5,5a,6,7,8,9-octahydro-2H-pyrazino[1′,2′:4,5][1,4]oxazino[2,3-e]isoindol-2-yl)piperidine-2,6-dione], the DC50 on ER was over 100 nM. In addition, in experiment [1], the half-maximal inhibitory concentration (IC50) was over 10 nM.

As to `C[C@@H]1Cc2c([nH]c3ccccc23)[C@@H](c2cnc(N3CCC4(CCC(N5CCN6c7ccc8c(c7OC[C@H]6C5)CN(C5CCC(=O)NC5=O)C8=O)CC4)CC3)nc2)N1CC(F)F` (stereo partly drawn) [Compound B163, 3-((R)-7-(3-(5-((1R,3R)-2-(2,2-difluoroethyl)-3-methyl-2,3,4,9-tetrahydro-1H-pyrido[3,4-b]indol-1-yl)pyrimidin-2-yl)-3-azaspiro[5.5]undecan-9-yl)-1-oxo-1,3,5,5a,6,7,8,9-octahydro-2H-pyrazino[1′,2′:4,5][1,4]oxazino[2,3-e]isoindol-2-yl)piperidine-2,6-dione], the DC50 at ER was over 100 nM. The IC50 in experiment [1] is over 10 nM.

`C[C@@H]1Cc2c([nH]c3ccccc23)[C@@H](c2cnc(N3CCC4(CCC(N5CCN6c7ccc8c(c7OC[C@H]6C5)CN(C5CCC(=O)NC5=O)C8=O)CC4)CC3)nc2)N1CC(C)(C)F` (stereo partly drawn) [Compound B164, 3-((R)-7-(3-(5-((1R,3R)-2-(2-fluoro-2-methylpropyl)-3-methyl-2,3,4,9-tetrahydro-1H-pyrido[3,4-b]indol-1-yl)pyrimidin-2-yl)-3-azaspiro[5.5]undecan-9-yl)-1-oxo-1,3,5,5a,6,7,8,9-octahydro-2H-pyrazino[1′,2′:4,5][1,4]oxazino[2,3-e]isoindol-2-yl)piperidine-2,6-dione]: the DC50 at ER is over 100 nM. Moreover, the 50% inhibitory concentration (IC50) in experiment [1] is 1 to 10 nM.

On to `C[C@@H]1Cc2c([nH]c3ccccc23)[C@@H](c2cnc(N3CCC4(CC3)CC(N3CCN5c6ccc7c(c6OC[C@H]5C3)CN(C3CCC(=O)NC3=O)C7=O)CO4)nc2)N1CC(C)(C)F` (stereo partly drawn) [Compound B165, 3-((5aR)-7-(8-(5-((1R,3R)-2-(2-fluoro-2-methylpropyl)-3-methyl-2,3,4,9-tetrahydro-1H-pyrido[3,4-b]indol-1-yl)pyrimidin-2-yl)-1-oxa-8-azaspiro[4.5]decan-3-yl)-1-oxo-1,3,5,5a,6,7,8,9-octahydro-2H-pyrazino[1′,2′:4,5][1,4]oxazino[2,3-e]isoindol-2-yl)piperidine-2,6-dione], for which, on ER, the DC50 was 10 to 100 nM. Moreover, the IC50 in experiment [1] was 1 to 10 nM.

Turning to `C[C@@H]1Cc2c([nH]c3ccccc23)[C@@H](c2cnc(N3CCC4(CC3)CC(N3CCN5c6ccc7c(c6OC[C@H]5C3)CN(C3CCC(=O)NC3=O)C7=O)CO4)nc2)N1CC(F)F` (stereo partly drawn) [Compound B166, 3-((5aR)-7-(8-(5-((1R,3R)-2-(2,2-difluoroethyl)-3-methyl-2,3,4,9-tetrahydro-1H-pyrido[3,4-b]indol-1-yl)pyrimidin-2-yl)-1-oxa-8-azaspiro[4.5]dccan-3-yl)-1-oxo-1,3,5,5a,6,7,8,9-octahydro-2H-pyrazino[1′,2′:4,5][1,4]oxazino[2,3-e]isoindol-2-yl)piperidine-2,6-dione], the DC50 at ER lay in the range of 10 to 100 nM. Besides, the IC50 in experiment [1] lay within 1 to 10 nM.

As to `C[C@@H]1Cc2c([nH]c3ccccc23)[C@@H](c2cnc(N3CC4(CCC(CN5Cc6cc7c(cc6C5)C(=O)N(C5CCC(=O)NC5=O)C7=O)CC4)C3)nc2)N1CC(F)(F)CO` (stereo partly drawn) [Compound B167, 6-((2-(5-((1R,3R)-2-(2,2-difluoro-3-hydroxypropyl)-3-methyl-2,3,4,9-tetrahydro-1H-pyrido[3,4-b]indol-1-yl)pyrimidin-2-yl)-2-azaspiro[3.5]nonan-7-yl)methyl)-2-(2,6-dioxopiperidin-3-yl)-6,7-dihydropyrrolo[3,4-f]isoindole-1,3(2H,5H)-dione], the DC50 at ER was over 100 nM. Also, the half-maximal inhibitory concentration (IC50) in experiment [1] is over 10 nM.

On to `C[C@@H]1Cc2c([nH]c3ccccc23)[C@@H](c2cnc(N3CCC4(CC3)CC(CN3CCN5c6ccc7c(c6OC[C@H]5C3)CN(C3CCC(=O)NC3=O)C7=O)CO4)nc2)N1CC(C)(C)F` (stereo partly drawn) [Compound B168, 3-((5aR)-7-((8-(5-((1R,3R)-2-(2-fluoro-2-methylpropyl)-3-methyl-2,3,4,9-tetrahydro-1H-pyrido[3,4-b]indol-1-yl)pyrimidin-2-yl)-1-oxa-8-azaspiro[4.5]decan-3-yl)methyl)-1-oxo-1,3,5,5a,6,7,8,9-octahydro-2H-pyrazino[1′,2′:4,5][1,4]oxazino[2,3-e]isoindol-2-yl)piperidine-2,6-dione], for which the half-maximal degradation concentration (DC50) on ER is under 10 nM. In experiment [1], the 50% inhibitory concentration (IC50) lay in the range of 1 to 10 nM.
